Reference: article PMC11681159, “Bee pollen peptides as potent tyrosinase inhibitors with anti-melanogenesis effects in murine b16f10 melanoma cells and zebrafish embryos” (Scientific Reports, 2024)
Ends that are not written are not given here.

How the values were obtained:
Trp-1 [1] = test: Western blot, TRP-1 protein; type: cell-based, mouse; conditions: B16F10, 48 h
Description: Western blot analysis was performed to measure TYR (TYR, TRP-1, TRP-2, and MITF) in B16F10 cells in line with the approach discussed by Yoon et al.[65]. whereby the B16F10 cells underwent treatment for 48 h using various peptide amounts ([…]) and also with arbutin (0.2 mM). Following this process, the cells were lysed using NP40 Cell Lysis Buffer with protease inhibitor cocktail supplementation. Next, 12% sodium dodecyl sulfate poly-acrylamide (SDS-PAGE) gel electrophoresis was used to extract equal quantities of protein from each sample, with subsequent transfer to PVD (polyvinylidene fluoride) membranes (Millipore, Bedford, MA, USA). The membrane was blocked overnight with 3% skimmed milk (w/v) in TBST with 0.5% Tween 20 at 4 °C and then washed thrice in TBST. The rabbit polyclonal anti-TYR antibody (dilution 1:1000), anti-TRP-1 antibody (dilution 1:1000), anti-TRP-2 antibody and anti-MITF antibody (dilution 1:1000) obtained from Abcam (USA), were used respectively to detect the TYR, TRP-1, TRP-2, and MITF bands. After thrice washing again in TBST, secondary antibodies (dilution 1:5000) were added to the membranes for 1 h of incubation at room temperature before another triplicate washing in TBST. […] The software facilitated the identification and quantification of protein expression levels.

Trp-2 = test: Western blot, TRP-2 protein; type: cell-based, mouse; conditions: B16F10, 48 h
Description: Following this process, the cells were lysed using NP40 Cell Lysis Buffer with protease inhibitor cocktail supplementation. Next, 12% sodium dodecyl sulfate poly-acrylamide (SDS-PAGE) gel electrophoresis was used to extract equal quantities of protein from each sample, with subsequent transfer to PVD (polyvinylidene fluoride) membranes (Millipore, Bedford, MA, USA). The membrane was blocked overnight with 3% skimmed milk (w/v) in TBST with 0.5% Tween 20 at 4 °C and then washed thrice in TBST. The rabbit polyclonal anti-TYR antibody (dilution 1:1000), anti-TRP-1 antibody (dilution 1:1000), anti-TRP-2 antibody and anti-MITF antibody (dilution 1:1000) obtained from Abcam (USA), were used respectively to detect the TYR, TRP-1, TRP-2, and MITF bands. After thrice washing again in TBST, secondary antibodies (dilution 1:5000) were added to the membranes for 1 h of incubation at room temperature before another triplicate washing in TBST. Enhanced chemiluminescence horseradish peroxidase (HRP) substrates (GeneDirex, Taiwan) were then used in line with the guidance of the manufacturer to detect bound antibodies, while β-actin antibody was employed to evaluate the loading control. Gel band detection was performed using ImageJ software (version 1.54), available at https://imagej.net/ij/. The software facilitated the identification and quantification of protein expression levels.

mushroom TYR = molecular target: T1, mushroom TYR (Agaricus bisporus, UniProt C7FF04); test: Kinetic study, Lineweaver-Burk, mono-phenolase; type: biochemical; conditions: Km rose, Vmax unchanged
T1 construct: purchased Sigma-Aldrich, Merck T3824
T1 sequence (C7FF04 2-392): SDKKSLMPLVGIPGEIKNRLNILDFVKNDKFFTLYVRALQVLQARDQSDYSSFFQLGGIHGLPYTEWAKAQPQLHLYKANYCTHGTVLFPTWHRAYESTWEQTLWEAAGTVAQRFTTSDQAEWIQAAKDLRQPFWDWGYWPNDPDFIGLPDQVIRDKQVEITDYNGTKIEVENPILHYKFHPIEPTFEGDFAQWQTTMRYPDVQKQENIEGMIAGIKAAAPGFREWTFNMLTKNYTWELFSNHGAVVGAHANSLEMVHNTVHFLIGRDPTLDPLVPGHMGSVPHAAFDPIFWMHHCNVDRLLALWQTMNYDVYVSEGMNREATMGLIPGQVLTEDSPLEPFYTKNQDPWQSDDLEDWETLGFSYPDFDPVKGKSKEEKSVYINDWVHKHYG
Description: It is necessary to determine the type of TYR inhibitory activity which takes place. This can be achieved through a modified version of an assay described by Feng et al.[39]. The process starts by dissolving the peptide VY-9 in deionized water at various concentrations (0, 0.25, 0.5, and 1 mM). Each VY-9 peptide sample at each concentration (35 µL) was combined 15 µL of mushroom TYR (333 U/mL in 50 mM PBS pH 6.8) prior to 5 min of incubation at 25 °C. Subsequently, various concentrations of substrate were introduced, namely 0–2 mM L-tyrosine in the case of mono-phenolase, and 0–12 mM L-DOPA for di-phenolase. These new mixtures underwent further incubation for 30 min at the same temperature of 25 °C. Upon completion, a spectrophotometer was used to measure the absorbance and determine the inhibitory activity at 490 nm. Lineweaver-Burk plots were then used in calculating Km and Vmax, the kinetic parameters. Km is indicated by the intersection point on the X-axis while Vmax is indicated by the intersection point on the Y-axis in the mode of TYR inhibition under examination. Construction of the plots linked the substrate concentration reciprocal on the X-axis and the absorbance reciprocal (at 490 nm) on the Y-axis, to represent the starting rate for the enzymatic reaction. […]

Trp-1 [2] = test: qRT-PCR, Trp-1 mRNA; type: cell-based, mouse; conditions: B16F10, 48 h
Description: A 6-well plate was used to seed B16F10 cells at 1 × 10^5 cells per well prior to overnight incubation in a 5% CO2 humid atmosphere at 37°C. […] Harvesting was conducted via removal of the supernatant, and the cells were rinsed twice in PBS (phosphate-buffered saline). The PureLink™RNA Mini Kit (Invitrogen™, USA) was then used to extract total RNA in line with the guidance of the manufacturer. RNA concentration was assessed at 260 nm with a NanoDrop 2000 UV-Vis spectrophotometer (Thermo Fisher Scientific, Inc.). Oligo-dT primers and a Precision nanoScript II Reverse Transcription Kit (PrimerDesign, Camberley, UK) were used to perform the reverse transcription of 1 µg of total RNA to cDNA in line with the guidance of the manufacturer. MyGo Pro®Real time PCR apparatus (IT-IS International Ltd., Stokesley, UK) was then used to perform the qRT-PCR assays in which 20 µL of PCR reaction contained 1 µL of cDNA, 7 µL of ultrapure water, 1 µL of each primer […], and 10 µL of 2×qPCRBIO SyGreen Mix (PCR Biosystems Ltd, London, UK). […] The relative gene expression level could then be calculated via the cycle threshold (Ct) value, while the role of endogenous control for data normalization was occupied by Gapdh (the housekeeping gene). […]

Sequence: VDGYPAAGY [VY-9, Val-Asp-Gly-Tyr-Pro-Ala- Ala-Gly-Tyr]
- TRP-1 protein expression vs control (Trp-1 [1]; 1.6 µM): the expression of all proteins decreased compared to the control
- concentration from which TRP-1 protein expression gradually decreased (Trp-1 [1]; western blot): 0.2 µM
- TRP-2 protein level vs control (Trp-2; 0.2 µM): decreased slightly compared to the control
- TRP-2 protein expression vs control (Trp-2; 1.6 µM): the expression of all proteins decreased compared to the control
- concentration from which TRP-2 protein expression gradually decreased (Trp-2; western blot): 0.2 µM
- inhibition type, mono-phenolase (mushroom TYR): competitive inhibitor
- Trp-1 mRNA expression vs control (Trp-1 [2]; 1.6 µM): significantly reduced the expression levels of all measured genes
- concentration at which Trp-1 mRNA expression was reduced (highest only) (Trp-1 [2]; vs control): 1.6 µM
